Experimental data taken from patent US20040253665A1, “Novel peptide-producing enzyme, microbe producing the enzyme and method for dipeptide synthesis using them” (AJINOMOTO CO., INC., priority 2002, published 2004).
Marks after values point to notes of the source that are not given here. Non-standard residues stand in square brackets, D forms with d. Residues, ends and D or L forms follow the SMILES beside them. No end group written: not given here. *: point of attachment. Tle = CC(C)(C)[C@H](N)C(=O)O; NMeA = CN[C@@H](C)C(=O)O; Boc = CC(C)(C)OC(=O)*; Aib = CC(C)(N)C(=O)O; OtBu = CC(C)(C)O*; tBu = CC(C)(C)*

test system: peptide-producing enzyme (Mono S fraction) from Empedobacter brevis strain FERM BP-8113; assay: Enzyme substrate specificity (1)-(10), (13), (14); assay type: biochemical; details: L or D amino acid methyl ester hydrochloride 100 mM, L or D amino acid 150 mM, pH 9.0, 25° C., 3 hours
Source text: Ester specificity was examined in the case of using L-amino acid ester for the carboxy component. […] The amounts of L-Ala-L-Gln produced in this reaction are shown in Table 4 (HCl represents hydrochloride in Table 4). Peptide production was examined in the case of using L-alanine methyl ester for the carboxy component and using various L-amino acids for the amine component. […] (The “+” mark indicates those peptides for which production was confirmed but which were unable to be quantified due to the absence of a standard, while “tr” indicates a trace amount.) Peptide production was examined in the case of using various types of L-amino acid methyl esters for the carboxy component and using L-glutamine for the amine component. […] Peptide production was examined in the case of using various L-amino acid methyl esters for the carboxy component and various L-amino acids for the amine component. […] (The “tr” indicates a trace amount.) Furthermore, Tween-80 was added to the reaction system to a final concentration of 0.1% in the case of using L-Trp-OMe. (The “+” mark indicates those peptides for which production was confirmed but which were unable to be quantified due to the absence of a standard.) […] (The “tr” indicates a trace amount.) Peptide production was examined using various L-amino acid amides for the carboxy component, and various L-amino acids for the amine component. […] Peptide production was examined in the case of using various L-alanine methyl esters for the carboxy component and C-protected L-amino acids for the amine component. […] Peptide production was examined in the case of using various amino acid methyl esters for the carboxy component and methylamine for the amine component. […] Peptide production was examined in the case of using β-amino acid ester for the carboxy component or β-amino acid for the amine component. […] (The “tr” indicates a trace amount.) Oligopeptide production was examined in the case of using L-amino acid ester for the carboxy component and peptide for the amine component. […] Substrate specificity was additionally assessed using the same enzyme fraction as that used in Example 5. […] (A “+” mark indicates those for which production was confirmed but which were unable to be quantified due to the absence of a standard, while “tr” indicates a trace amount). Substrate specificity with respect to oligopeptide production was assessed using the same enzyme fraction as Example 26. […] (A “+” mark indicates those for which production was confirmed but which were unable to be quantified due to the absence of a standard, while “tr” indicates a trace amount). It should be noted that hydrochlorides were used for all of the carboxy components.

| Molecule | Produced peptide [mM] |
| --- | --- |
| C[C@@H](O)[C@H](N)C(=O)N[C@H](CO)C(=O)O [L-Thr-D-Ser] (H-Thr-[dS]-OH) | 6.9 |
| C[C@H](N)C(=O)N[C@H](CCC(N)=O)C(=O)O [L-Ala-D-Gln] (H-Ala-[dQ]-OH) | 0.3 |
| C[C@@H](N)C(=O)N[C@@H](CCC(N)=O)C(=O)O [D-Ala-L-Gln] (H-[dA]-Gln-OH) | 69.3 |
| CC(C)[C@@H](N)C(=O)N[C@H](CO)C(=O)O [D-Val-D-Ser] (H-[dV]-[dS]-OH) | 0.5 |
| CSCC[C@H](N)C(=O)N[C@H](CO)C(=O)O [L-Met-D-Ser] (H-Met-[dS]-OH) | 1.9 |
| N[C@H](CO)C(=O)N[C@@H](CO)C(=O)O [D-Ser-L-Ser] (H-[dS]-Ser-OH) | 3.3 |
| CC(C)[C@@H](N)C(=O)N[C@@H](CO)C(=O)O [D-Val-L-Ser] (H-[dV]-Ser-OH) | 0.6 |
| C[C@H](O)[C@@H](N)C(=O)N[C@@H](CO)C(=O)O [D-Thr-L-Ser] (H-[dT]-Ser-OH) | 1.0 |
| N[C@@H](CO)C(=O)N[C@H](CO)C(=O)O [L-Ser-D-Ser] (H-Ser-[dS]-OH) | 16.2 |
| CSCC[C@@H](N)C(=O)N[C@H](CO)C(=O)O [D-Met-D-Ser] (H-[dM]-[dS]-OH) | 2.7 |
| C[C@H](O)[C@@H](N)C(=O)N[C@H](CO)C(=O)O [D-Thr-D-Ser] (H-[dT]-[dS]-OH) | 1.1 |
| N[C@H](CO)C(=O)N[C@H](CO)C(=O)O [D-Ser-D-Ser] (H-[dS]-[dS]-OH) | 2.5 |
| CSCC[C@@H](N)C(=O)N[C@@H](CO)C(=O)O [D-Met-L-Ser] (H-[dM]-Ser-OH) | 5.1 |
| CC(C)[C@H](N)C(=O)N[C@H](CO)C(=O)O [L-Val-D-Ser] (H-Val-[dS]-OH) | 1.4 |

same assay, conditions: L-amino acid amide hydrochloride 100 mM as carboxy component, L-amino acid 150 mM, pH 9.0, 25° C., 3 hours

| Molecule | Produced peptide [mM] |
| --- | --- |
| N[C@@H](Cc1ccccc1)C(=O)N[C@@H](CO)C(=O)O [L-Phe-L-Ser] (H-Phe-Ser-OH) | 0.6 |

same assay, conditions: L-amino acid ester 100 mM, amino acid or peptide amine component 150 mM, pH 9.0, 25° C., 3 hours

| Molecule | Produced peptide [mM] |
| --- | --- |
| Gly-Gly-L-Gln | 7.2 |
| Gly-Gly-L-Tyr-L-Ala | 44.2 |

same assay, conditions: L-amino acid methyl ester hydrochloride 100 mM, L-amino acid 150 mM, pH 9.0, 25° C., 3 hours

| Molecule | Produced peptide [mM] |
| --- | --- |
| CSCC[C@H](NC(=O)[C@@H](N)CC(C)C)C(=O)O [L-Leu-L-Met] (H-Leu-Met-OH) | 12.2 |
| NC(=O)C[C@H](N)C(=O)N[C@@H](CCC(=O)O)C(=O)O [LAsn-L-Glu] (H-Asn-Glu-OH) | 10.2 |
| NCC(=O)N[C@@H](CS)C(=O)O [Gly-L-CySH] (H-Gly-Cys-OH) | 45.6 |
| CSCC[C@H](NC(=O)[C@@H](N)Cc1cnc[nH]1)C(=O)O [L-His-L-Met] (H-His-Met-OH) | 6.5 |
| C[C@@H](O)[C@H](N)C(=O)N[C@@H](CO)C(=O)O [L-Thr-L-Ser] (H-Thr-Ser-OH) | 58.2 |
| CSCC[C@H](NC(=O)[C@@H](N)Cc1c[nH]c2ccccc12)C(=O)O [L-Trp-L-Met] (H-Trp-Met-OH) | 4.1 |
| CSCC[C@H](NC(=O)[C@@H](N)CCCCN)C(=O)O [L-Lys-L-Met] | 6.8 |

same assay, conditions: carboxy component 10 mM, amine component 15 mM, pH 9.0, 25° C., 3 hours

| Molecule | Produced peptide (mM) |
| --- | --- |
| L-Ala-L-Ala-L-Ala-L-Ala-L-Ala-L-Ala | 1.4* mM |

same assay, conditions: carboxy component 40 mM, amine component 40 mM, 0.1 unit enzyme, 25° C., reaction time 3 hr

| Molecule | Produced peptide [mM] |
| --- | --- |
| C[C@H](N)C(=O)N[C@@H](Cc1ccc(Cl)cc1)C(=O)O [H-Ala-Cl-F-Phe-OH] | 20.8 |
| C[C@H](N)C(=O)N[C@@H](Cc1ccc([N+](=O)[O-])cc1)C(=O)O [H-Ala-p-NO2-Phe-OH] | 27.5 |
| NC(=O)CC[C@H](NC(=O)[C@@H](N)Cc1ccc([N+](=O)[O-])cc1)C(=O)O [H-p-NO2-Phe-H-Gln-OH] | 1.1 |

same assay, conditions: carboxy component 50 mM, amine component 50 mM, 0.1 unit enzyme, 25° C., reaction time 3 hr

| Molecule | Produced peptide [mM] |
| --- | --- |
| C[C@H](N)C(=O)N[C@@H](Cc1ccc(F)cc1)C(=O)O [H-Ala-p-F-Phe-OH] | 21.9 |

same assay, conditions: carboxy component 100 mM, amine component 150 mM, 0.1 unit enzyme, 25° C., reaction time 2 hr

| Molecule | Produced peptide [mM] |
| --- | --- |
| CC(C)(C)OC(=O)C[C@H](N)C(=O)N[C@@H](CCC(N)=O)C(=O)O [H-Asp (OtBu)-Gln-OH] (H-Asp(OtBu)-Gln-OH) | 0.9 |
| C[C@H](N)C(=O)N[C@@H](CC(=O)OC(C)(C)C)C(=O)O [H-Ala-Asp(OtBu)-OH] (H-Ala-Asp(OtBu)-OH) | 62.6 |
| C[C@H](N)C(=O)N[C@@H](CCCCNC(=O)OC(C)(C)C)C(=O)O [H-Ala-Lys(Boc)-OH] (H-Ala-Lys(Boc)-OH) | 51.0 |
| C[C@H](N)C(=O)N[C@@H](COC(C)(C)C)C(=O)O [H-Ala-Ser(tBu)-OH] (H-Ala-Ser(tBu)-OH) | 48.8 |

same assay, conditions: carboxy component 100 mM, amine component 150 mM, 0.1 unit enzyme, 25° C., reaction time 3 hr

| Molecule | Produced peptide [mM] |
| --- | --- |
| CN[C@@H](C)C(=O)N[C@@H](CCC(N)=O)C(=O)O [H-N-Me-Ala-H-Gln-OH] (H-[NMeA]-Gln-OH) | 0.5 |
| C[C@H](N)C(=O)N[C@H](C(=O)O)C(C)(C)C [H-Ala-t-Leu-OH] (H-Ala-[Tle]-OH) | 0.4 |
| CC(C)(N)C(=O)N[C@@H](Cc1ccccc1)C(=O)O [H-Aib-Phe-OH] (H-[Aib]-Phe-OH) | 17.2 |
| CC(C)(N)C(=O)N[C@@H](CCC(N)=O)C(=O)O [H-Aib-H-Gln-OH] (H-[Aib]-Gln-OH) | 18.8 |

same assay, conditions: carboxy component (label) 100 mM, 200 mM L-glutamine, pH 9.0, 25° C., 2 hours

| Molecule | L-Ala-L-Gln produced [mM] |
| --- | --- |
| C[C@H](N)C(=O)OC(C)(C)C.Cl [L-Alanine-t-butyl ester.HCl] | 7.5 |
| CC(C)OC(=O)[C@H](C)N.Cl [L-Alanine isopropyl ester.HCl] | 78.9 |
| COC(=O)[C@H](C)N.Cl [L-Alanine methyl ester.HCl, L-alanine methyl ester hydrochloride] | 84.3 |
| CCOC(=O)[C@H](C)N.Cl [L-Alanine ethyl ester.HCl] | 91.5 |

same assay, conditions: oligopeptide production, amount of enzyme 0.1 units, pH 9.0, 25° C., 3 hours

| Molecule | Produced peptide (mM) |
| --- | --- |
| [dA]-Gly-Phe | Tr |

same assay, conditions: oligopeptide production, amount of enzyme 1.0 units, pH 9.0, 25° C., 3 hours

| Molecule | Produced peptide [mM] |
| --- | --- |
| Gly-Phe-Met | 13.3 |
| L-Tyr-Gly-Gly-L-Phe-L-Met | 2.7 |

same assay, conditions: β-amino acid ester as carboxy component or β-amino acid as amine component; 100 mM / 150 mM, pH 9.0, 25° C., 3 hours

| Molecule | Produced peptide [mM] |
| --- | --- |
| CC(N)C(=O)NCCC(=O)O (stereo not drawn) [Ala-β-Ala] | 7.7 |
| NCC(=O)NC(CC(=O)O)c1ccccc1 (stereo not drawn) [Gly-β-Phe] | 0.4 |
| CC(N)C(=O)NC(CC(=O)O)c1ccccc1 (stereo not drawn) [Ala-β-Phe] | 1.4 |
| NCC(=O)NCCC(=O)O [Gly-β-Ala] | 2.2 |
| C[C@@H](O)[C@H](N)C(=O)NCCC(=O)O [Thr-β-Ala] | 3.2 |
| NCCC(=O)NC(CO)C(=O)O [β-Ala-L-Ser] | 3.2 |
| NCCC(=O)NCCC(=O)O [β-Ala-β-Ala] | 0.2 |
| C[C@@H](O)[C@H](N)C(=O)NC(CC(=O)O)c1ccccc1 (stereo partly drawn) [Thr-β-Phe] | 1.4 |
| NCCC(=O)N[C@@H](CCC(N)=O)C(=O)O [β-Ala-L-Gln] | 0.6 |
